According to patent US8592485B2, “Methods and pharmaceutical compositions for treating the animal central nervous system for psychiatric disorders” (HealthPartners Research Foundation, priority 2010, dated 2013):

What was measured:
[1] = cited from earlier work
GSK3b = assay: Hippocampal pGSK3b/GSK3b ratio in C57 mice after DFO (western blot, ELISA); format: in vivo; conditions: hippocampus (FIG. 1A); for higher ratio of pGSK3b/GSK3b than PBS mice: upper third of nasal cavity, five days/week for four weeks
Method: The study method providing results in FIGS. 1A and 1B comprised normal C57 mice which were treated with DFO by administration to the upper third of the nasal cavity, thereby delivering the DFO directly to the CNS by bypassing the blood-brain barrier. Treatment groups consisted of 1% DFO, 10% DFO and saline. Mice were treated five days/week for four weeks. Mice were then dosed a final time, euthanized after 30 minutes, brain tissues collected an analyzed for biochemical changes. Protein extraction was achieved by homogenization of frozen brain tissues in 5 volumes of ice-cold RIPA buffer supplemented with protease inhibitor cocktail and phosphatase inhibitor cocktail. Homogenates were centrifuged at 20,000×g for 20 minutes at 4C. Supernatant was collected from the cortex, diencephalon and hippocampus and stored at −70C until analysis by western blot and ELISA.

[2] = cited from earlier work; remark: listed apart in the source
[3] = Intranasal delivery of DFO (bound to 59Fe) to rats, tissue concentrations by scintillation counting
Method: Delivery of intranasal DFO to the upper one-third of the nasal cavity has been assessed by administering 6 mg DFO bound to 6 μCi of ^59Fe (as ^59FeCl3) to rats under anesthesia. The IN dose in 60 μL was administered as 6 μL drops over twenty minutes. Following delivery, tissues were removed for analysis.

Compound	typical plasma half-life ([1]; humans, intravenous)	crossing of the blood-brain barrier ([1]; intravenously or systemically administered)	higher ratio of pGSK3b/GSK3b than PBS mice (GSK3b; 1% DFO) [%]	higher ratio of pGSK3b/GSK3b of 10% DFO mice than 1% DFO mice (GSK3b; 10% DFO versus 1% DFO, intranasal) [%]	higher ratio of pGSK3b/GSK3b than PBS mice (GSK3b; 10% DFO) [%]	effect of injection of an intravenous bolus [2]	blood concentrations of ferrioxamine ([3]; 5 minute intervals from dosing up to 25 minutes post-dose)	labeled ferrioxamine in brain by scintillation counting ([3]; intranasal 6 mg DFO bound to 6 uCi 59Fe)
CC(=O)N(O)CCCCCNC(=O)CCC(=O)N(O)CCCCCNC(=O)CCC(=O)N(O)CCCCCN [DFO, deferoxamine]	less than 10 minutes	does not efficiently or effectively cross the blood-brain barrier	99.8	57.4	214	acute hypotension		
CC(=O)N([O-])CCCCCNC(=O)CCC(=O)N([O-])CCCCCNC(=O)CCC(=O)N([O-])CCCCCN.[Fe+3] [ferrioxamine]							quite low	detected throughout the brain
